According to paper PMC8182759, “Cryo-Electron Microscopy of Arabidopsis thaliana Phytochrome A in Its Pr State Reveals Head-to-Head Homodimeric Architecture” (Frontiers in Plant Science, 2021):

T1: AtphyA (Arabidopsis thaliana phytochrome A, full length) (Arabidopsis thaliana, UniProt P14712)
T1 construct: gene PHYA; full length, residues 1-1122, C-terminal hexahistidine tag kept; E. coli BL21(DE3) LOBSTR, plasmid pDG388 co-expressing Synechocystis heme oxygenase and PcyA; homodimer (dimer/monomer mixture at pH 9.3)
T1 sequence (P14712 1-1122): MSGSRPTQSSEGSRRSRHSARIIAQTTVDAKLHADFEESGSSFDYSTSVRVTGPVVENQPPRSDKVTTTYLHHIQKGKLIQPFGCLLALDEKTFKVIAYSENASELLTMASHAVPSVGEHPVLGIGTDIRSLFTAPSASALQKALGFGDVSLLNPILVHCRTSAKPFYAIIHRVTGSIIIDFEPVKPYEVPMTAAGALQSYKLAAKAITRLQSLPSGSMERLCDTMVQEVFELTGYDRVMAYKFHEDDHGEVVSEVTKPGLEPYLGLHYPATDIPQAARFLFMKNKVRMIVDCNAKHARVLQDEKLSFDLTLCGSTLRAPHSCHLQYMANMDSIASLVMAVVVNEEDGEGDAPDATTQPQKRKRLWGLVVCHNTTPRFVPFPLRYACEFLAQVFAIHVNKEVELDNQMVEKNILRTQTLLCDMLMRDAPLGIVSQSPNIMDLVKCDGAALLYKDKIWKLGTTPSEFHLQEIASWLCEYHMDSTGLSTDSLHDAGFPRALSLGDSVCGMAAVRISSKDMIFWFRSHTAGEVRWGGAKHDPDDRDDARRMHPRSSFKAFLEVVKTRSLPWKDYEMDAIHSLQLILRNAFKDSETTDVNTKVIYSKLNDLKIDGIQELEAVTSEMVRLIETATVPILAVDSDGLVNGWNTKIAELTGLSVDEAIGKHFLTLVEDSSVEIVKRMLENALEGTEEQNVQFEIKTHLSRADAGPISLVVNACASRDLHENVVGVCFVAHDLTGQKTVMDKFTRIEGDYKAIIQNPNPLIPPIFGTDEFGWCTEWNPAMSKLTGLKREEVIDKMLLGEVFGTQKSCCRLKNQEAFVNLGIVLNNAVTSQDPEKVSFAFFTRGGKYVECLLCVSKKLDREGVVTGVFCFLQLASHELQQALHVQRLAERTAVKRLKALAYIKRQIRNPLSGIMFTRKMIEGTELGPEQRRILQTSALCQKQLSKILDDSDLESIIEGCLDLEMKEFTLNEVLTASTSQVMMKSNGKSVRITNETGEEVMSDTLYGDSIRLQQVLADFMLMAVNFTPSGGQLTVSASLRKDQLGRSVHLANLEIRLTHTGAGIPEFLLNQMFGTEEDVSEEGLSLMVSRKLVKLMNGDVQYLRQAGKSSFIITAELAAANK

B1: Arabidopsis thaliana phytochrome A (receptor, UniProt P14712 1-1122, looked up)
chain: T1 sequence (P14712 1-1122)
modifications: covalently attached phycocyanobilin (PCB) chromophore
notes: Studied in the Pr state after 730 nm illumination; A plasmid map of pDG388 is in the Supplementary Material; No removal of the His tag is described; also called AtphyA; phyA; source: E. coli BL21(DE3) LOBSTR, purified (Ni-NTA IMAC, SEC), coexpressed with Synechocystis sp. heme oxygenase and PcyA

Assays:
[1] = target: T1, AtphyA (Arabidopsis thaliana phytochrome A, full length); assay: zinc-induced bilin fluorescence on denaturing gel; UV/vis absorbance and photoconversion; assay type: binding; settings: covalent; bilin attached to a cysteine of the GAF domain; assembled during co-expression in E. coli with heme oxygenase/PcyA; purified at pH 8.0
[2] = target: the molecule itself; assay: cryo-EM structure; single-particle cryo-EM of AtphyA purified at pH 9.3, Pr state (730 nm pre-illumination), 1-1.5 mg/ml, 136,173 particles, refinement with 2-fold symmetry, ~17 Å

Molecule	zinc-induced bilin fluorescence on denaturing gel; UV/vis absorbance and photoco [1]	stoichiometry N [2]
C/C=C1/C(=C/c2[nH]c(/C=C3N=C(/C=C4\NC(=O)C(CC)=C4C)C(C)=C\3CCC(=O)O)c(CCC(=O)O)c2C)NC(=O)[C@@H]1C [phycocyanobilin]	full-length AtphyA could be obtained with covalently attached PCB, as detected by zinc-induced bilin fluorescence	
B1		2
